Test results taken from the supplement of paper PMC11451515.

Key:
Conditions in all cases: 48 h
[1] = system: NOMO1; test: cell viability relative to DMSO control; higher = less cytotoxic
Outline: (§1)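 Library compounds in DMSO were pin-dosed in an 11-point threefold series (47 μM to 0.79 nM) onto leukemia cells in 1536-well plates (5 μl). Plates held 500 cells/well of NOMO1 or SEM or 1000 cells/well of P12-Ichikawa, each adapted for at least four passages in each medium. Luminescence was read with CellTiter-Glo One after 48 h at 37°C. Viability means the per-plate percentage relative to DMSO wells, using cell-free wells as background.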

[2] = system: SEM cells; test: as above
Outline: as §1

[3] = system: P12-Ichikawa; test: as above
Outline: as §1

[4] = system: NOMO1; test: AUC of viability dose-response curve (% viability x log10 dose units); higher = less sensitive
Outline: (§2)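 Over 48 h at 37°C, leukemia cells in 1536-well plates (500 or 1000 cells/well), adapted to each medium, received library compounds in DMSO at 11 threefold doses from 47 μM to 0.79 nM. CellTiter-Glo One luminescence, normalised per plate to DMSO and cell-free wells, was fitted by a four-parameter log-logistic function of log10 dose. The area under the curve was then integrated by trapezoidal rule, after scaling curves above full viability and removing those that failed quality control.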

[5] = system: SEM cells; test: as above
Outline: as §2

[6] = system: P12-Ichikawa; test: as above
Outline: as §2

CN(C)Cc1cccc(N/C(=C2\C(=O)Nc3cc(C(=O)N(C)C)ccc32)c2ccccc2)c1
cell viability [%]
Conditions	[1]	[2]	[3]
HPLM + 10% dialyzed FBS, 0.000781 µM	99.3	75.8	95.7
HPLM + 10% dialyzed FBS, 0.00234 µM	105	88.4	105
HPLM + 10% dialyzed FBS, 0.00702 µM	112	100	110
HPLM + 10% dialyzed FBS, 0.0211 µM	112	98.6	101
HPLM + 10% dialyzed FBS, 0.0632 µM	91.1	112	119
HPLM + 10% dialyzed FBS, 0.19 µM	118	101	114
HPLM + 10% dialyzed FBS, 0.569 µM	110	108	111
HPLM + 10% dialyzed FBS, 1.71 µM	97.9	97.2	115
HPLM + 10% dialyzed FBS, 5.12 µM	74.8	90.7	103
HPLM + 10% dialyzed FBS, 15.4 µM	58.2	55	93.2
HPLM + 10% dialyzed FBS, 46.1 µM	28.8	2.72	42.3
RPMI 5 mM glucose + 10% FBS, 0.000781 µM	100	92.4	90.7
RPMI 5 mM glucose + 10% FBS, 0.00234 µM	105	87.5	114
RPMI 5 mM glucose + 10% FBS, 0.00702 µM	101	102	108
RPMI 5 mM glucose + 10% FBS, 0.0211 µM	105	104	109
RPMI 5 mM glucose + 10% FBS, 0.0632 µM	103	109	114
RPMI 5 mM glucose + 10% FBS, 0.19 µM	107	114	111
RPMI 5 mM glucose + 10% FBS, 0.569 µM	95.2	104	113
RPMI 5 mM glucose + 10% FBS, 1.71 µM	92.4	102	106
RPMI 5 mM glucose + 10% FBS, 5.12 µM	84.6	71.2	96
RPMI 5 mM glucose + 10% FBS, 15.4 µM	68.5	7.07	90.3
RPMI 5 mM glucose + 10% FBS, 46.1 µM	55	1.12	65
RPMI 5 mM glucose + 10% dialyzed FBS, 0.000781 µM	95.7	74.2	100
RPMI 5 mM glucose + 10% dialyzed FBS, 0.00234 µM	88.9	103	111
RPMI 5 mM glucose + 10% dialyzed FBS, 0.00702 µM	95.9	96.5	111
RPMI 5 mM glucose + 10% dialyzed FBS, 0.0211 µM	96.4	108	117
RPMI 5 mM glucose + 10% dialyzed FBS, 0.0632 µM	107	103	120
RPMI 5 mM glucose + 10% dialyzed FBS, 0.19 µM	99.6	110	111
RPMI 5 mM glucose + 10% dialyzed FBS, 0.569 µM	112	111	114
RPMI 5 mM glucose + 10% dialyzed FBS, 1.71 µM	112	115	118
RPMI 5 mM glucose + 10% dialyzed FBS, 5.12 µM	81.2	85.6	103
RPMI 5 mM glucose + 10% dialyzed FBS, 15.4 µM	73	26.6	98.2
RPMI 5 mM glucose + 10% dialyzed FBS, 46.1 µM	61.6	1.38	64.4

AUC of viability dose-response curve
Conditions	[4]	[5]	[6]
HPLM + 10% dialyzed FBS	418	420	455
RPMI 5 mM glucose + 10% FBS	433	394	453
RPMI 5 mM glucose + 10% dialyzed FBS	444	411	458

O=C1CCc2cc(OCCCCc3nnnn3C3CCCCC3)ccc2N1
cell viability [%]
Conditions	[1]	[2]	[3]
HPLM + 10% dialyzed FBS, 0.000781 µM	92.2	79.2	90.5
HPLM + 10% dialyzed FBS, 0.00234 µM	86.5	83.1	92.6
HPLM + 10% dialyzed FBS, 0.00702 µM	92.8	101	87.5
HPLM + 10% dialyzed FBS, 0.0211 µM	99.6	92	95.7
HPLM + 10% dialyzed FBS, 0.0632 µM	97.6	92.9	96.4
HPLM + 10% dialyzed FBS, 0.19 µM	98.9	83.8	97.6
HPLM + 10% dialyzed FBS, 0.569 µM	107	88.8	94.2
HPLM + 10% dialyzed FBS, 1.71 µM	86	96.2	95.6
HPLM + 10% dialyzed FBS, 5.12 µM	108	97.8	96
HPLM + 10% dialyzed FBS, 15.4 µM	124	104	97.4
HPLM + 10% dialyzed FBS, 46.1 µM	111	99.3	96.9
RPMI 5 mM glucose + 10% FBS, 0.000781 µM	93	88.8	78.9
RPMI 5 mM glucose + 10% FBS, 0.00234 µM	94.7	88.8	93.8
RPMI 5 mM glucose + 10% FBS, 0.00702 µM	91.3	92	89.2
RPMI 5 mM glucose + 10% FBS, 0.0211 µM	82.8	91.5	81
RPMI 5 mM glucose + 10% FBS, 0.0632 µM	85.8	88.7	91.2
RPMI 5 mM glucose + 10% FBS, 0.19 µM	98.4	75.7	94.2
RPMI 5 mM glucose + 10% FBS, 0.569 µM	88.2	107	98.1
RPMI 5 mM glucose + 10% FBS, 1.71 µM	88.7	104	95.8
RPMI 5 mM glucose + 10% FBS, 5.12 µM	92.4	89.2	85.2
RPMI 5 mM glucose + 10% FBS, 15.4 µM	91.2	104	98.5
RPMI 5 mM glucose + 10% FBS, 46.1 µM	91.4	81.3	99.2
RPMI 5 mM glucose + 10% dialyzed FBS, 0.000781 µM	88.6	80.1	90.2
RPMI 5 mM glucose + 10% dialyzed FBS, 0.00234 µM	93	90	88.1
RPMI 5 mM glucose + 10% dialyzed FBS, 0.00702 µM	88.8	100	90
RPMI 5 mM glucose + 10% dialyzed FBS, 0.0211 µM	95.7	86.2	94.6
RPMI 5 mM glucose + 10% dialyzed FBS, 0.0632 µM	88	78.5	88.4
RPMI 5 mM glucose + 10% dialyzed FBS, 0.19 µM	93.1	87.6	91.8
RPMI 5 mM glucose + 10% dialyzed FBS, 0.569 µM	96.9	92.2	95.9
RPMI 5 mM glucose + 10% dialyzed FBS, 1.71 µM	96.5	92.7	90.2
RPMI 5 mM glucose + 10% dialyzed FBS, 5.12 µM	109	101	89.6
RPMI 5 mM glucose + 10% dialyzed FBS, 15.4 µM	93.9	90.6	88.1
RPMI 5 mM glucose + 10% dialyzed FBS, 46.1 µM	96	88.2	87.1

AUC of viability dose-response curve
Conditions	[4]	[5]	[6]
HPLM + 10% dialyzed FBS	411	439	452
RPMI 5 mM glucose + 10% FBS	433	438	436
RPMI 5 mM glucose + 10% dialyzed FBS	451	428	431
